In ChEMBL document CHEMBL5385976, “Recognition of arylmethylidene derivatives of imidazothiazolotriazinones as novel tubulin polymerization inhibitors” (RSC Med Chem, 2024):

Key:
Format in all cases: functional
NCI/ADR-RES = assay: Anticancer activity against human NCI-ADR-RES cells assessed as cell growth at 10 umol/L incubated for 48 hrs by SRB assay relative to control; settings: dose 10 µmol/L, read-out: Activity
[1] = system: Panel NCI-60 (60 carcinoma cell lines); assay: Antiproliferative activity against human panel NCI-60 (60 carcinoma cell lines) assessed as mean cell growth at 10 umol/L incubated for 48 hrs by SRB assay relative to control; settings: dose 10 µmol/L, at 10 µM
SK-MEL-2 = assay: Anticancer activity against human SK-MEL-2 cells assessed as cell growth at 10 umol/L incubated for 48 hrs by SRB assay relative to control; settings: SK-MEL-2, 48 h, dose 10 µmol/L, read-out: Activity
Malme-3M = assay: Anticancer activity against human Malme-3M cells assessed as cell growth at 10 umol/L incubated for 48 hrs by SRB assay relative to control; settings: dose 10 µmol/L, read-out: Activity
U-251 = assay: Anticancer activity against human U-251 cells assessed as cell growth at 10 umol/L incubated for 48 hrs by SRB assay relative to control; settings: U-251, 48 h, dose 10 µmol/L, read-out: Activity
MDA-MB-435 = assay: Anticancer activity against human MDA-MB-435 cells assessed as cell growth at 10 umol/L incubated for 48 hrs by SRB assay relative to control; settings: MDA-MB-435, 48 h, dose 10 µmol/L, read-out: Activity
NCI-H460 = assay: Anticancer activity against human NCI-H460 cells assessed as cell growth at 10 umol/L incubated for 48 hrs by SRB assay relative to control; settings: NCI-H460, 48 h, dose 10 µmol/L, read-out: Activity
TK-10 = assay: Anticancer activity against human TK-10 cells assessed as cell growth at 10 umol/L incubated for 48 hrs by SRB assay relative to control; settings: TK-10, 48 h, dose 10 µmol/L, read-out: Activity
RPMI-8226 = assay: Anticancer activity against human RPMI-8226 cells assessed as cell growth at 10 umol/L incubated for 48 hrs by SRB assay relative to control; settings: RPMI-8226, 48 h, dose 10 µmol/L, read-out: Activity
NCI-H226 = assay: Anticancer activity against human NCI-H226 cells assessed as cell growth at 10 umol/L incubated for 48 hrs by SRB assay relative to control; settings: NCI-H226, 48 h, dose 10 µmol/L, read-out: Activity
RXF 393 = assay: Anticancer activity against human RXF 393 cells assessed as cell growth at 10 umol/L incubated for 48 hrs by SRB assay relative to control; settings: RXF 393, 48 h, dose 10 µmol/L, read-out: Activity
HL-60(TB) = assay: Anticancer activity against human HL-60(TB) cells assessed as cell growth at 10 umol/L incubated for 48 hrs by SRB assay relative to control; settings: HL-60, 48 h, dose 10 µmol/L, read-out: Activity
HOP-92 = assay: Anticancer activity against human HOP-92 cells assessed as cell growth at 10 umol/L incubated for 48 hrs by SRB assay relative to control; settings: HOP-92, 48 h, dose 10 µmol/L, read-out: Activity
K562 = assay: Induction of cell cycle arrest in human K562 cells at G1 phase at 0.5 uM incubated for 3 days by RNase/PI staining based flow cytometry (reference value: 50 %); settings: time 3 day
NCI-H522 = assay: Anticancer activity against human NCI-H522 cells assessed as cell growth at 10 umol/L incubated for 48 hrs by SRB assay relative to control; settings: NCI-H522, 48 h, dose 10 µmol/L, read-out: Activity
EKVX = assay: Anticancer activity against human EKVX cells assessed as cell growth at 10 umol/L incubated for 48 hrs by SRB assay relative to control; settings: dose 10 µmol/L, read-out: Activity
HOP-62 = assay: Anticancer activity against human HOP-62 cells assessed as cell growth at 10 umol/L incubated for 48 hrs by SRB assay relative to control; settings: HOP-62, 48 h, dose 10 µmol/L, read-out: Activity
NCI-H23 = assay: Anticancer activity against human NCI-H23 cells assessed as cell growth at 10 umol/L incubated for 48 hrs by SRB assay relative to control; settings: NCI-H23, 48 h, dose 10 µmol/L, read-out: Activity
UO-31 = assay: Anticancer activity against human UO-31 cells assessed as cell growth at 10 umol/L incubated for 48 hrs by SRB assay relative to control; settings: UO-31, 48 h, dose 10 µmol/L, read-out: Activity
BT-549 = assay: Anticancer activity against human BT-549 cells assessed as cell growth at 10 umol/L incubated for 48 hrs by SRB assay relative to control; settings: BT-549, 48 h, dose 10 µmol/L, read-out: Activity
SW-620 = assay: Anticancer activity against human SW620 cells assessed as cell growth at 10 umol/L incubated for 48 hrs by SRB assay relative to control; settings: SW-620, 48 h, dose 10 µmol/L, read-out: Activity
MDA-MB-231 = assay: Anticancer activity against human MDA-MB-231 cells assessed as cell growth at 10 umol/L incubated for 48 hrs by SRB assay relative to control; settings: MDA-MB-231, 48 h, dose 10 µmol/L, read-out: Activity
A498 = assay: Anticancer activity against human A498 cells assessed as cell growth at 10 umol/L incubated for 48 hrs by SRB assay relative to control; settings: A498, 48 h, dose 10 µmol/L, read-out: Activity
MOLT-4 = assay: Anticancer activity against human MOLT-4 cells assessed as cell growth at 10 umol/L incubated for 48 hrs by SRB assay relative to control; settings: MOLT-4, 48 h, dose 10 µmol/L, read-out: Activity
MCF7 = assay: Anticancer activity against human MCF7 cells assessed as cell growth at 10 umol/L incubated for 48 hrs by SRB assay relative to control; settings: MCF7, 48 h, dose 10 µmol/L, read-out: Activity
SF-295 = assay: Anticancer activity against human SF-295 cells assessed as cell growth at 10 umol/L incubated for 48 hrs by SRB assay relative to control; settings: SF-295, 48 h, dose 10 µmol/L, read-out: Activity
PC-3 = assay: Anticancer activity against human PC-3 cells assessed as cell growth at 10 umol/L incubated for 48 hrs by SRB assay relative to control; settings: PC-3, 48 h, dose 10 µmol/L, read-out: Activity
HCC 2998 = assay: Anticancer activity against human HCC 2998 cells assessed as cell growth at 10 umol/L incubated for 48 hrs by SRB assay relative to control; settings: HCC 2998, 48 h, dose 10 µmol/L, read-out: Activity
SNB-19 = assay: Anticancer activity against human SNB-19 cells assessed as cell growth at 10 umol/L incubated for 48 hrs by SRB assay relative to control; settings: SNB-19, 48 h, dose 10 µmol/L, read-out: Activity
[2] = system: Panel NCI-60 (60 carcinoma cell lines); assay: Antiproliferative activity against human panel NCI-60 (60 carcinoma cell lines) assessed as total inhibition of cell growth incubated for 48 hrs by SRB assay

| SMILES | growth at 10 µM (NCI/ADR-RES) [%] | Activity [1] [%] | growth at 10 µM (SK-MEL-2) [%] | growth at 10 µM (Malme-3M) [%] | growth at 10 µM (U-251) [%] | growth at 10 µM (MDA-MB-435) [%] | growth at 10 µM (NCI-H460) [%] | growth at 10 µM (TK-10) [%] | growth at 10 µM (RPMI-8226) [%] | growth at 10 µM (NCI-H226) [%] | growth at 10 µM (RXF 393) [%] | growth at 10 µM (HL-60(TB)) [%] | growth at 10 µM (HOP-92) [%] | Activity (K562) [%] | growth at 10 µM (NCI-H522) [%] | growth at 10 µM (EKVX) [%] | growth at 10 µM (HOP-62) [%] | growth at 10 µM (NCI-H23) [%] | growth at 10 µM (UO-31) [%] | growth at 10 µM (BT-549) [%] | further results |
| --- | --- | --- | --- | --- | --- | --- | --- | --- | --- | --- | --- | --- | --- | --- | --- | --- | --- | --- | --- | --- | --- |
| COc1cc2c(c(OC)c1OC)-c1ccc(OC)c(=O)cc1[C@@H](NC(C)=O)CC2 [COLCHICINE] | -20.9 | 8.4 | -32 | 39 | 19 | -50.8 | 2.9 | 52.7 | 2.3 | 31 | 15.3 | 13 | 2.4 | 18 | -64.2 | 35.8 | 20 | 12.6 | 21.2 | 55.1 | growth at 10 µM (SW-620): 26.4%; growth at 10 µM (MDA-MB-231): 11.7%; growth at 10 µM (A498): 15.5%; growth at 10 µM (MOLT-4): 6.7%; growth at 10 µM (MCF7): -9.6%; growth at 10 µM (SF-295): -10.6%; growth at 10 µM (PC-3): -28.6%; growth at 10 µM (HCC 2998): -59%; growth at 10 µM (SNB-19): 19% |
| CCN1C(=O)N(CC)C2C1NN=c1s/c(=C\c3ccc(Cl)cc3Cl)c(=O)n12 (centres undefined) | 5.7 | 18.2 | -20.8 | 50.4 | 11 | -24.8 | 5.7 | 67.7 | 16.5 | 48.8 | 61.1 | 9.4 | 50.9 | 13 | -8.8 | 50.1 | 33.5 | 28.4 | 35.9 | 15.9 | growth at 10 µM (SW-620): 20.5%; growth at 10 µM (MDA-MB-231): 12.4%; growth at 10 µM (A498): 16.9%; growth at 10 µM (MOLT-4): 12.9%; growth at 10 µM (MCF7): 14%; growth at 10 µM (SF-295): -12.6%; GI [2]: >66.8 µM; growth at 10 µM (PC-3): 24.6%; growth at 10 µM (HCC 2998): 7.2%; growth at 10 µM (SNB-19): 27.9% |
